Measurements published in PubChem BioAssay (NCI).
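Dose response: 5 concentrations. Exposure: 48 h. Format: 96-well plates. Endpoint: linear interpolation; highest concentration if not reached. The concentration for 50% growth inhibition is given as GI50. TGI marks complete inhibition of growth.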

Key:
Assay in all cases: growth of human tumour cells (NCI), 48 h
HCC-2998 colon = system: HCC-2998 colon
SK-MEL-5 melanoma = system: SK-MEL-5 melanoma
NCI-H522 lung = system: NCI-H522 lung
OVCAR-8 ovarian = system: OVCAR-8 ovarian
OVCAR-5 ovarian = system: OVCAR-5 ovarian
IGROV1 ovarian = system: IGROV1 ovarian
A549 NSCLC = system: A549 NSCLC
HOP-62 NSCLC = system: HOP-62 NSCLC
UACC-257 melanoma = system: UACC-257 melanoma

SMILES | TGI (HCC-2998 colon) [µM] | TGI (SK-MEL-5 melanoma) [µM] | TGI (NCI-H522 lung) [µM] | TGI (OVCAR-8 ovarian) [µM] | TGI (OVCAR-5 ovarian) [µM] | TGI (IGROV1 ovarian) [µM] | TGI (A549 NSCLC) [µM] | TGI (HOP-62 NSCLC) [µM] | TGI (UACC-257 melanoma) [µM] | GI50 (HCC-2998 colon) [µM] | GI50 (SK-MEL-5 melanoma) [µM] | GI50 (NCI-H522 lung) [µM] | GI50 (OVCAR-8 ovarian) [µM] | GI50 (HOP-62 NSCLC) [µM] | GI50 (UACC-257 melanoma) [µM]
Cn1c(SCc2ccc([N+](=O)[O-])cc2)nnc1C12CC3CC(CC(C3)C1)C2 | > 10 | > 10 | > 10 | > 10 | > 10 | > 10 | > 10 | > 10 |  |  |  |  |  |  | 
C[C@]12CC[C@@H]3c4cc(C=O)c(OCc5ccccc5)cc4CC[C@H]3[C@@H]1CCC2OCc1ccccc1 (some centres not stated) | > 100 | > 100 | > 100 | > 100 | > 100 |  | > 100 | > 100 | > 100 |  |  |  |  |  | 
COc1ccc(CNCCN2C(=O)c3ccc4c5c(ccc(c35)C2=O)C(=O)N(CCNCc2ccc(OC)c(OC)c2OC)C4=O)c(OC)c1OC | 0.59 | 1.09 | 1.19 | 0.648 |  |  |  | 1.08 | 0.303 | 0.167 | 0.48 | 0.519 | 0.16 | 0.248 | 0.113
Cc1ccc2c(=O)cc(-c3ccccc3)[nH]c2n1 | 4.68 | 18.7 | 2.94 | 0.853 | > 100 | > 100 | > 100 | > 100 | > 43.4 |  |  |  |  |  | 
CCN1CCC(O)(/C=C/c2ccc(Cl)c(Cl)c2)C(C(=O)/C=C/c2ccc(Cl)c(Cl)c2)C1 (configuration not stated) | 3.25 | 2.18 | 2.33 | 1.87 | 2.52 | 1.71 | 1.72 | 2.48 | 2.71 |  |  |  |  |  | 
COc1cccc2c1CCc1sc(CN3CCN(C)CC3)nc1-2 | > 100 | 80.1 | > 100 | > 100 | > 100 | > 100 | > 100 | > 100 | > 100 |  |  |  |  |  | 
CC(C)(C)c1ccc(OCCOc2ccc(C(C)(C)C)cc2NC=O)c(NC=O)c1 | 23.5 | 15.3 | 24.4 | 59.4 | 75.5 | > 100 | > 100 | 28 | 27.4 |  |  |  |  |  | 
CC(=O)OC1CC[C@@]2(C)C(=CC[C@@H]3[C@@H]2CC[C@]2(C)Nc4c(cnn4-c4ccc(F)cc4)C[C@@H]32)C1 (some centres not stated) | > 100 | > 93.9 | > 100 | > 100 | > 100 | > 100 | > 100 | 17.8 | > 100 |  |  |  |  |  | 
CC(C)C(C=O)C(O)(C(F)(F)F)C(F)(F)F (configuration not stated) | > 100 | > 100 | > 100 | > 100 | > 100 |  | > 100 |  | > 100 |  |  |  |  |  | 
CN(CCCNC(=O)c1[nH]nc2c1ccc1ccccc12)CCCNC(=O)c1[nH]nc2c1ccc1ccccc12 | 4.13 | 17 | 30.8 | 30.9 | 37.2 | 30.9 | 37.6 | 34.6 | 16.9 |  |  |  |  |  | 
C=c1c2ccccc2oc2nc3[nH]c(N)c(C#N)c(N)c3c(=N)c12 | 66.7 | 57.2 |  | 54.6 | > 100 | 42.5 | > 100 | > 100 | > 100 |  |  |  |  |  | 
